{"source": "ChEMBL document CHEMBL4808172", "about": "“Structure-Activity Relationship of Heterocyclic P2Y14 Receptor Antagonists: Removal of the Zwitterionic Character with Piperidine Bioisosteres” (J Med Chem, 2021)", "key": {"[1]": {"target": "T1, liver carboxylesterase (Sus scrofa, UniProt Q29550)", "T1 sequence (Q29550 whole entry)": "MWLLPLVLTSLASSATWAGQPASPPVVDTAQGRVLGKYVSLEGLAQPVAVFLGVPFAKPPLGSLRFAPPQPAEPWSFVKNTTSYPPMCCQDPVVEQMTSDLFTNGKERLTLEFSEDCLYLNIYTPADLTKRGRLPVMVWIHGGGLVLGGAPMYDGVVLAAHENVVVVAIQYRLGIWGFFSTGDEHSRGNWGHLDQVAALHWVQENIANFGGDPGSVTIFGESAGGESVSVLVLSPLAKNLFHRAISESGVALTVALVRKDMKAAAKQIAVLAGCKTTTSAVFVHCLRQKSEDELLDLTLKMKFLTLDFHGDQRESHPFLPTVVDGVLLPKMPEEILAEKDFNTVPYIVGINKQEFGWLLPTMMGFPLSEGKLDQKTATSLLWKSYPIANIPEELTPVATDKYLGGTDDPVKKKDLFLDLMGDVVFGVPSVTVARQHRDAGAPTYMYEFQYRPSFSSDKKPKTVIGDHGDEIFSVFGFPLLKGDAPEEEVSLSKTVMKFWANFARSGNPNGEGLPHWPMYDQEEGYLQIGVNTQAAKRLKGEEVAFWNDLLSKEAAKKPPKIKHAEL", "experiment": "Drug metabolism in pH 7.5 HEPES buffer assessed as porcine liver esterase-mediated compound hydrolysis by measuring half life measured up to 72 hrs by HPLC analysis", "assay_type": "ADME, tissue-based", "details": "pig"}, "[2]": {"target": "T1, liver carboxylesterase", "experiment": "Drug metabolism in pH 7.5 HEPES buffer assessed as porcine liver esterase-mediated compound hydrolysis measured up to 72 hrs by HPLC analysis", "assay_type": "ADME", "details": "pig, read-out: Drug degradation"}, "[3]": {"experiment": "Stability of compound in aqueous medium after 24 hrs in absence of PLE by HPLC analysis", "assay_type": "physicochemical", "details": "buffer"}, "[4]": {"test_system": "Mus musculus", "experiment": "Antiinflammatory activity in mouse model of ovalbumin/Aspergillus-induced allergic asthma assessed as reduction in eosinophil counts in BALF at 20 umol/kg, ip administered 30 mins prior to allergen challenge and measured after 2 days post challenge", "assay_type": "functional, organism-based", "details": "dose 20.0 µmol/kg, time 2.0 day"}, "[5]": {"experiment": "Aqueous solubility of compound at pH 7.4", "assay_type": "physicochemical", "details": "buffer"}, "[6]": {"experiment": "Aqueous solubility of compound at pH 4.0", "assay_type": "physicochemical", "details": "buffer"}, "[7]": {"target": "Translocator protein (Homo sapiens, UniProt P30536)", "sequence (P30536 whole entry)": "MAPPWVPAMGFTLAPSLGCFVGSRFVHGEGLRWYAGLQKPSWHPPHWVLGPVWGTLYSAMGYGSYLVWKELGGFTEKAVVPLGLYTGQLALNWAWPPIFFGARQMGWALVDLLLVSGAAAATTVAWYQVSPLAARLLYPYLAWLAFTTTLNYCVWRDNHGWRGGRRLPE", "experiment": "Binding affinity to TSPO (unknown origin)"}, "[8]": {"target": "Histamine H1 receptor (Homo sapiens, UniProt P35367)", "sequence (P35367 whole entry)": "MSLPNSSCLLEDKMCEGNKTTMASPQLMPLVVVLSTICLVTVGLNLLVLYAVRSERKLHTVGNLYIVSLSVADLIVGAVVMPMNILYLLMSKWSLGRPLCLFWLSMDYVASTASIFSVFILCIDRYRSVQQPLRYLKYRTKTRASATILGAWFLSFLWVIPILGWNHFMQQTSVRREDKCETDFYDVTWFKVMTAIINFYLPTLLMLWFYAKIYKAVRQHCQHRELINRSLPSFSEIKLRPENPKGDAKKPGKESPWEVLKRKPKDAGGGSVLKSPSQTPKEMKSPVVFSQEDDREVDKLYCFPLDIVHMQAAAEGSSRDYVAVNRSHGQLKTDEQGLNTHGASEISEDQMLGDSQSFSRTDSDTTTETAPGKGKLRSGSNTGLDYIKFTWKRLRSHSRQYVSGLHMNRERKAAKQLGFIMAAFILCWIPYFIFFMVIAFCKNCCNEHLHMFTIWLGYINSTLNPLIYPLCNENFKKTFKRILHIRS", "experiment": "Binding affinity to H1 receptor (unknown origin)"}, "[9]": {"target": "Sigma non-opioid intracellular receptor 1 (Homo sapiens, UniProt Q99720)", "sequence (Q99720 whole entry)": "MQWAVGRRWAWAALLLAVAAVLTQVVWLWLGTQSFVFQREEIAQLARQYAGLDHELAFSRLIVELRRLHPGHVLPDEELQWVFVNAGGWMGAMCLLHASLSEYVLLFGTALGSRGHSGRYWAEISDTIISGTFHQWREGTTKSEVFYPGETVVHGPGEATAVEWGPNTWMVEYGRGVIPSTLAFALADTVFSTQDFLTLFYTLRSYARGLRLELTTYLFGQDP", "experiment": "Binding affinity to sigma 1 receptor (unknown origin)"}, "[10]": {"target": "Delta-type opioid receptor (Homo sapiens, UniProt P41143)", "sequence (P41143 whole entry)": "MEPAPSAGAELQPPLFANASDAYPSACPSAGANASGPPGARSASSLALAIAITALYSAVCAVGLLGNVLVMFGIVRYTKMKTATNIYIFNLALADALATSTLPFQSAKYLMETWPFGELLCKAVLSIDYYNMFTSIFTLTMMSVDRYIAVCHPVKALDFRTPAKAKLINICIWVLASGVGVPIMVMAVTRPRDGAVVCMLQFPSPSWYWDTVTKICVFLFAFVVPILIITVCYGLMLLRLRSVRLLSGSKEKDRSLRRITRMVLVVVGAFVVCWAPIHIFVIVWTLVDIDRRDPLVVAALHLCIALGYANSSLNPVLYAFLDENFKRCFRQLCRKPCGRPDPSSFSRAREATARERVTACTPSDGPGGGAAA", "experiment": "Binding affinity to DOR (unknown origin)"}, "[11]": {"target": "5-hydroxytryptamine receptor 1D (Homo sapiens) (UniProt P28221)", "sequence (P28221 whole entry)": "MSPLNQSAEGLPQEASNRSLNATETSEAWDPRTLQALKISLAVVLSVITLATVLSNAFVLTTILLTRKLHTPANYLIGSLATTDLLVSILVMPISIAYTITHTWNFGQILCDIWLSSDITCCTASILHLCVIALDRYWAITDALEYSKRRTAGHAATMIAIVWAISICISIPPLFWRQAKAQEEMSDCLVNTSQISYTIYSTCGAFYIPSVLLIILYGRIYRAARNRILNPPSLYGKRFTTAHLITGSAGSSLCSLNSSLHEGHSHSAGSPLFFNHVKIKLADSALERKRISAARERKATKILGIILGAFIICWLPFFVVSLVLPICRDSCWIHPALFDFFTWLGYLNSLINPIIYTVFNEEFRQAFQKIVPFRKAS", "experiment": "Inhibition of 5HT1D (unknown origin) at 10 uM relative to control"}, "[12]": {"target": "T2, Alpha-1B adrenergic receptor (Homo sapiens, UniProt P35368)", "T2 sequence (P35368 whole entry)": "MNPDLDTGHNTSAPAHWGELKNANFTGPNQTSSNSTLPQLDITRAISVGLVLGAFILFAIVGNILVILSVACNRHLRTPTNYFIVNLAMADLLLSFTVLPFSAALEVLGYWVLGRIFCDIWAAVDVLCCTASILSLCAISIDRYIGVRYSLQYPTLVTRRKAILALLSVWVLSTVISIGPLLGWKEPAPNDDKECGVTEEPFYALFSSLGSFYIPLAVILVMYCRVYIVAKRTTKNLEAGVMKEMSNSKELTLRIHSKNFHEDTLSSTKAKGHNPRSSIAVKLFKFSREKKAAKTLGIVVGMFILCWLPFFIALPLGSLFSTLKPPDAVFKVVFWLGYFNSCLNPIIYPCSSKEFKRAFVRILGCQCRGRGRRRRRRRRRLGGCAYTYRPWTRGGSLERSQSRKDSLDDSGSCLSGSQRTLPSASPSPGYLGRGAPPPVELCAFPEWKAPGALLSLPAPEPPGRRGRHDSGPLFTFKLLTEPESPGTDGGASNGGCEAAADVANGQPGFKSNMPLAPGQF", "experiment": "Binding affinity to alpha1b (unknown origin)"}, "[13]": {"target": "T3, Alpha-2A adrenergic receptor (Homo sapiens, UniProt P08913)", "T3 sequence (P08913 whole entry)": "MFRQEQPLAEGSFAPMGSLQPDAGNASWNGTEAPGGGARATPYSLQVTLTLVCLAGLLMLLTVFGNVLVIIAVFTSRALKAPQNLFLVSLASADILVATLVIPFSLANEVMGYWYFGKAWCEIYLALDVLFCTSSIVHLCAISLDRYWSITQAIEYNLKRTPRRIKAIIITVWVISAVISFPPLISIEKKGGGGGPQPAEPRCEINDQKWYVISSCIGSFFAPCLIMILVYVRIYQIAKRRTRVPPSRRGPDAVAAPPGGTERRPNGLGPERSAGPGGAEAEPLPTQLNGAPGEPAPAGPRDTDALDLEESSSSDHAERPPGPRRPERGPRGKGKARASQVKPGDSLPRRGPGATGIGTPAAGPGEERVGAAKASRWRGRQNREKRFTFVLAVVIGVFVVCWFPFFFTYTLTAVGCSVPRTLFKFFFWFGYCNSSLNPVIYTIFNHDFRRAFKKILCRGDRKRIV", "experiment": "Binding affinity to alpha2a (unknown origin)"}, "[14]": {"target": "T4, Alpha-2B adrenergic receptor (Homo sapiens) (UniProt P18089)", "T4 sequence (whole entry)": "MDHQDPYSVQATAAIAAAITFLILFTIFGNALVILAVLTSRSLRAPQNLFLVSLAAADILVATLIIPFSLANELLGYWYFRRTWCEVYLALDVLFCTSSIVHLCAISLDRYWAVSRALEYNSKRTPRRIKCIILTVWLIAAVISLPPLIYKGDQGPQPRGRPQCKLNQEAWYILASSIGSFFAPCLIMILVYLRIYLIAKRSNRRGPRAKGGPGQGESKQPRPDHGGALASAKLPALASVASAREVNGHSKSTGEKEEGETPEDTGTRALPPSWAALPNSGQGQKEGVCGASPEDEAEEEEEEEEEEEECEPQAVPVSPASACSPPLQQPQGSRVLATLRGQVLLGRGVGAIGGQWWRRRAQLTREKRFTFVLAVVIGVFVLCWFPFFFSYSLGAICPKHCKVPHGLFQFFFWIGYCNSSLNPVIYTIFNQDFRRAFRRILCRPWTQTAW", "experiment": "Inhibition of alpha2b (unknown origin) at 10 uM relative to control"}, "[15]": {"target": "D(1A) dopamine receptor (Homo sapiens, UniProt P21728)", "sequence (P21728 whole entry)": "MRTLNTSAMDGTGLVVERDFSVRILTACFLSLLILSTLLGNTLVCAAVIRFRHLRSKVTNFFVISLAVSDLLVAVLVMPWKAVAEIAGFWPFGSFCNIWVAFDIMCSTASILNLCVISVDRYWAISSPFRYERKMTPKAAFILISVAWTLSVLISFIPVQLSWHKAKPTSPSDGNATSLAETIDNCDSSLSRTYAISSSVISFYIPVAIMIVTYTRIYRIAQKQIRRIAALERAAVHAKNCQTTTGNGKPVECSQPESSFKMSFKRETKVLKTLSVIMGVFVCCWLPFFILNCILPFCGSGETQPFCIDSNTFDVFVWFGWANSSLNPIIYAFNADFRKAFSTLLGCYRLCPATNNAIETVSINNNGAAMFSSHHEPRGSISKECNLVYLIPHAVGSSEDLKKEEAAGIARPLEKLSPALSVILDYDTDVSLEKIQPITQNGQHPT", "experiment": "Binding affinity to D1 receptor (unknown origin)"}, "[16]": {"target": "D(1B) dopamine receptor (Homo sapiens, UniProt P21918)", "sequence (P21918 whole entry)": "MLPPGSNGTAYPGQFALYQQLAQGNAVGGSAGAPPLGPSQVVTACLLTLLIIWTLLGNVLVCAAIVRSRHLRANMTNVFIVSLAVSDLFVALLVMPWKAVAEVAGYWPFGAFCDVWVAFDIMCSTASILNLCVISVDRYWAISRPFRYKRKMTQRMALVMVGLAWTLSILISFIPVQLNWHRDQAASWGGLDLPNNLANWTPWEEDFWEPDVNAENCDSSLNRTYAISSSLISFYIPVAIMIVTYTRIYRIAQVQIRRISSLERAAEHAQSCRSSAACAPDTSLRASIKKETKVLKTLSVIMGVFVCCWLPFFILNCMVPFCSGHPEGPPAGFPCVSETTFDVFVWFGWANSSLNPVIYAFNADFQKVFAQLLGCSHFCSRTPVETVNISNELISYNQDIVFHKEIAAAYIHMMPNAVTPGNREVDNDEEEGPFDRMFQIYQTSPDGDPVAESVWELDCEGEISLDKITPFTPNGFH", "experiment": "Binding affinity to D5 receptor (unknown origin)"}, "[17]": {"target": "T5, Sigma intracellular receptor 2 (Homo sapiens, UniProt Q5BJF2)", "T5 sequence (Q5BJF2 whole entry)": "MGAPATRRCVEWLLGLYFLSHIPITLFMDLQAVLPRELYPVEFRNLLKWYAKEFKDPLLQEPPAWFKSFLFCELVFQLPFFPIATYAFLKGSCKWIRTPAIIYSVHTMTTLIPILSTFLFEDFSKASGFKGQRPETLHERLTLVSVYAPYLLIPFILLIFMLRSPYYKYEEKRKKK", "experiment": "Inhibition of sigma 2 receptor (unknown origin) at 10 uM relative to control"}, "[18]": {"target": "Histamine H4 receptor (Homo sapiens, UniProt Q9H3N8)", "sequence (Q9H3N8 whole entry)": "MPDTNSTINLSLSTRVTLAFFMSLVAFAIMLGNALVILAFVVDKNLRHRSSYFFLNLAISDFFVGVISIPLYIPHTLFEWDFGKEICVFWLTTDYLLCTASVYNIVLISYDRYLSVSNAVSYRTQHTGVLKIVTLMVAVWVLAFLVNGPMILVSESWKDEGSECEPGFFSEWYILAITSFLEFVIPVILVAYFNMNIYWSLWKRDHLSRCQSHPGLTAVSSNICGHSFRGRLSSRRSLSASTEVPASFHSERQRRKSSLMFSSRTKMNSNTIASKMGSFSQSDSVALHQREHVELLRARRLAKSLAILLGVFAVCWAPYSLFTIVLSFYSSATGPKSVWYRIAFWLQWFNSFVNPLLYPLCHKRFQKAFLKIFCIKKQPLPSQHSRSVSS", "experiment": "Binding affinity to H4 receptor (unknown origin)"}, "[19]": {"target": "T1, liver carboxylesterase", "experiment": "Drug metabolism in pH 7.5 HEPES buffer assessed as porcine liver esterase-mediated compound hydrolysis by measuring half life measured up to 120 mins by HPLC analysis", "assay_type": "ADME, tissue-based", "details": "pig"}, "[20]": {"target": "T5, Sigma intracellular receptor 2", "experiment": "Binding affinity to sigma 2 receptor (unknown origin)"}}, "note": "Values joined by “and” are separate entries in the source; they are usually repeats but may differ in a detail not shown here. Equal values may be shown once. Active and inactive are the calls of the source. The rule behind the calls is not given here.", "data": [{"smiles": "CN(C)C(=O)COC(=O)c1cc(-c2ccc(-c3cc(CO)on3)cc2)c2ccc(-c3ccc(C(F)(F)F)cc3)cc2c1", "values": [{"measurement": "half-life", "setting": "[1]", "value": "> 72", "unit": "h"}, {"measurement": "metabolised at 72 h", "setting": "[2]", "value": 32.6, "unit": "%"}, {"measurement": "Stabilty", "setting": "[3]", "value": "Stable"}, {"measurement": "Activity", "setting": "[4]", "value": "Active"}]}, {"smiles": "O=C(O)c1cc(-c2ccc(-c3cc(CO)on3)cc2)cc(-n2cc(-c3ccc(C(F)(F)F)cc3)nn2)c1", "values": [{"measurement": "solubility", "setting": "[5]", "value": "3.72 ug ml-1 and 7.34 uM"}, {"measurement": "solubility", "setting": "[6]", "value": 0.6, "unit": "µg/mL"}, {"measurement": "Ki", "setting": "[7]", "value": 0.751, "unit": "µM"}, {"measurement": "Ki", "setting": "[8]", "value": 2.65, "unit": "µM"}]}, {"smiles": "O=C(O)c1cc(-c2ccc(NC(=O)C3CCNCC3)cc2)cc(-n2cc(-c3ccc(C(F)(F)F)cc3)nn2)c1", "values": [{"measurement": "Ki", "setting": "[9]", "value": 2.33, "unit": "µM"}, {"measurement": "Ki", "setting": "[10]", "value": 2, "unit": "µM"}]}, {"smiles": "O=CN1CCC(c2ccc(-c3cc(C(=O)O)cc4cc(-c5ccc(C(F)(F)F)cc5)ccc34)cc2)CC1", "values": [{"measurement": "Ki", "setting": "[9]", "value": 0.759, "unit": "µM"}, {"measurement": "inhibition", "setting": "[11]", "value": 81, "unit": "%"}, {"measurement": "Ki", "setting": "[12]", "value": 2.65, "unit": "µM"}, {"measurement": "Ki", "setting": "[13]", "value": 3.97, "unit": "µM"}, {"measurement": "inhibition", "setting": "[14]", "value": 82, "unit": "%"}, {"measurement": "Ki", "setting": "[15]", "value": 0.52, "unit": "µM"}, {"measurement": "Ki", "setting": "[16]", "value": 1.44, "unit": "µM"}, {"measurement": "inhibition", "setting": "[17]", "value": 84, "unit": "%"}, {"measurement": "Ki", "setting": "[18]", "value": 1.7, "unit": "µM"}]}, {"smiles": "CN(C)C(=O)COC(=O)c1cc(-c2ccc(C3CCNCC3)cc2)cc(-n2cc(-c3ccc(C(F)(F)F)cc3)nn2)c1", "values": [{"measurement": "half-life", "setting": "[19]", "value": 20.2, "unit": "min"}, {"measurement": "Stabilty", "setting": "[3]", "value": "Stable"}]}, {"smiles": "O=C(O)c1cc(-c2ccc(-c3nnn[nH]3)cc2)cc(-n2cc(-c3ccc(C(F)(F)F)cc3)nn2)c1", "values": [{"measurement": "Ki", "setting": "[20]", "value": 2.26, "unit": "µM"}, {"measurement": "Ki", "setting": "[10]", "value": 3.3, "unit": "µM"}]}]}
